{
  "source": "patent US9981970B2",
  "about": "“Bicyclic ureas and thiadiazolidine-1, 1-dioxides as CETP inhibitors” (Merck Sharp & Dohme Corp., priority 2013, dated 2018)",
  "data": [
    {"target": "T1, endogenous CETP from serum (Homo sapiens, UniProt P11597)", "T1 construct": "yielding a concentration of approximately 15 nM endogenous CETP in the assay; from tissue; host or cells: human serum", "T1 sequence (P11597 18-493)": "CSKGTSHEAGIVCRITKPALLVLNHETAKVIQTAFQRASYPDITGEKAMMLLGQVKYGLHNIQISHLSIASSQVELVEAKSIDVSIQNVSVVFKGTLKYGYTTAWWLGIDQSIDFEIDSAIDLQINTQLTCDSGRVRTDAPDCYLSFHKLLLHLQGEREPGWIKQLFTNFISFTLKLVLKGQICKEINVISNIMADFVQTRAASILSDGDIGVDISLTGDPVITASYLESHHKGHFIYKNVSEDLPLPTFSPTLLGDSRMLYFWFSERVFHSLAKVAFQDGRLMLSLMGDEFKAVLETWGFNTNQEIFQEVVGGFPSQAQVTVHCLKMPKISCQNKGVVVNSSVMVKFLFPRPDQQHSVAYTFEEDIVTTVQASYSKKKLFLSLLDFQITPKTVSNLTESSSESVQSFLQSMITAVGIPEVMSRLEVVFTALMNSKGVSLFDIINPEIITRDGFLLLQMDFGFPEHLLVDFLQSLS", "assay": "RTA assay in 95% human serum (in vitro radioactive assay of CETP-catalyzed CE and TG transfer)", "format": "biochemical", "details": "Table 1; data generally obtained using the RTA assay in 95% human serum; read-out: IC50", "text": "In Vitro Radioactive Assays of CETP-Catalyzed CE and TG Transfer (RTA Assay)\nReagents and sources are: [3H] cholesteryl oleate (GE #TRK.886), [3H] Triolein (Perkin-Elmer NET-431), Butylated hydroxyl toluene (Aldrich, #D4740-4), DOPC (Sigma, # P6354), Sodium Bromide (Fisher scientific #S255-500), PEG 8000 (Fisher, #BP233-1), and human HDL (Intracel Corp #RP-036).\nBoth assays measure the transfer of [3H] cholesteryl oleate or [3H] triolein from exogenous LDL to HDL.\nRadiolabeled donor particles are generated by first combining 100 μl of 200 μM butylated hydroxyl toluene in CHCl3, 216 μL of 21.57 mM DOPC in EtOH, and either 500 μCi [3H]-triolein (Perkin Elmer #NET-431) or 500 μCi [3H]-cholesteryl oleate (GE #TRK886) in a glass tube. Reagents are mixed, dried under nitrogen, and then resuspended in 2 mL of 50 mM Tris, 27 μM EDTA at pH 7.4. After a brief vortex, the solution is sonicated until clear and mixed with 20 mL of fresh human serum. The mixture is incubated overnight at 37° C. The [3H] labeled LDL substrate is separated at 1.063 g/ml density by sequential ultracentrifugal flotation in NaBr according to the method of Havel, Eder, et al., 1955, and Chapman, Goldstein, et al., 1981. Once isolated the particles are dialyzed 3× in CETP buffer (50 mM Tris, pH 7.4, 100 mM NaCl, 1 mM EDTA). Human HDL is purchased from Intracel and used as the acceptor particles.\nTransfer assays are performed in a 96-well v-bottom polypropylene plate. For the RTA using recombinant CETP (2% RTA), an assay cocktail is prepared with the final concentrations 128 μg/mL HDL, 20 nM rCETP, 2% human serum, and 1×CETP buffer. 1 μL of each test compound diluted in DMSO is added to 47 μL of assay cocktail per well and incubated at 37° C. for 1 hour. To initiate the transfer reaction, 2 μL radiolabeled LDL is added. After an additional 60 min of incubation at 37° C., the transfer action is terminated by precipitation of LDL with an equal volume of 20% WN PEG 8000. The plates are centrifuged at 2000 rpm for 30 minutes at 4° C. A 40 μL aliquot of the HDL-containing supernatant is transferred to a Packard Optiplate™ with 200 μL of MicroScint™ 20. After mixing, plates are counted by liquid scintillation. Counts present in the supernatant for blanks (wells containing only HDL acceptor, CETP buffer and DMSO) are subtracted from those containing test compounds and used to correct for non-specific transfer.\nThis is then combined with HDL and CETP buffer and the reaction proceeds as above and is terminated as described.\nComparison of the counts of samples with inhibitors to an uninhibited (DMSO only) positive control yield a percent inhibition. A plot of percent inhibition vs. log of inhibitor concentration, fit to a Sigmoidal 4 parameter equation is used to calculate IC50.\nStarting materials are commercially available or are made using known procedures or as shown below. The examples may be synthesized according to the general schemes provided below and by using the synthetic intermediates that are described. […] When compounds of Formula I are mentioned herein, such compounds include compounds defined generically by Formula I and also the specific examples disclosed herein.", "units": {"IC50": "nM"}, "values": [
      {"smiles": "COc1cc(F)c(C(C)C)cc1-c1ccc(C(F)(F)F)cc1[C@@H]1CC[C@H]2[C@@H](c3cc(F)cc(C(F)(F)F)c3)NC(=O)N12", "note": "[Example 6]", "IC50": 1070},
      {"smiles": "COc1ncc(-c2c(C)cc(C(=O)O)cc2C)cc1-c1ccc(C(F)(F)F)cc1[C@@H]1CC[C@H]2[C@@H](c3cc(C(F)(F)F)cc(C(F)(F)F)c3)NC(=O)N12", "note": "[Example 5, 4-{5-[2-{(1R,5S,7aS)-1-[3,5-bis(trifluoromethyl)phenyl]-3-oxohexahydro-1H-pyrrolo[1,2-c]imidazol-5-yl}-4-(trifluoromethyl)phenyl]-6-methoxypyridin-3-yl}-3,5-dimethylbenzoic acid]", "IC50": 392},
      {"smiles": "COc1ncc(-c2ccc(C(=O)O)cc2C)cc1-c1ccc(C(F)(F)F)cc1[C@@H]1CC[C@H]2[C@@H](c3cc(F)cc(C(F)(F)F)c3)NS(=O)(=O)N12", "note": "[Example 24, 4-{5-[2-{(3R,3aS,6S)-3-[3-fluoro-5-(trifluoromethyl)phenyl]-1,1-dioxidohexahydropyrrolo[1,2-b][1,2,5]thiadiazol-6-yl}-4-(trifluoromethyl)phenyl]-6-methoxypyridin-3-yl}-3-methylbenzoic acid]", "IC50": 1260},
      {"smiles": "COc1ccc(CCC(=O)O)cc1-c1ccc(C(F)(F)F)cc1[C@@H]1CC[C@H]2[C@@H](c3cc(C(F)(F)F)cc(C(F)(F)F)c3)N(C)C(=O)N12", "note": "[Example 10, 3-[2′-{(1R,5S,7aS)-1-[3,5-bis(trifluoromethyl)phenyl]-2-methyl-3-oxohexahydro-1H-pyrrolo[1,2-c]imidazol-5-yl}-6-methoxy-4′-(trifluoromethyl)biphenyl-3-yl]propanoic acid]", "IC50": 2950},
      {"smiles": "COc1ccc([C@H]2[C@H](C)C(=O)N[C@@H]2C)cc1-c1ccc(C(F)(F)F)cc1[C@@H]1CC[C@H]2[C@@H](c3cc(C(F)(F)F)cc(C(F)(F)F)c3)NC(=O)N12", "note": "[Example 15, (1R,5S,7aS)-1-[3,5-bis(trifluoromethyl)phenyl]-5-{5′-[(2R,3R,4S)-2,4-dimethyl-5-oxopyrrolidin-3-yl]-2′-methoxy-4-(trifluoromethyl)biphenyl-2-yl}hexahydro-3H-pyrrolo[1,2-c]imidazol-3-one]", "IC50": 1740},
      {"smiles": "COc1ncc(-c2ccc(C(=O)O)cc2C)cc1-c1ccc(C(F)(F)F)cc1[C@@H]1CC[C@H]2[C@@H](c3cc(C(F)(F)F)cc(C(F)(F)F)c3)N(C)C(=O)N12", "note": "[Example 4, 4-{5-[2-{(1R,5S,7aS)-1-[3,5-bis(trifluoromethyl)phenyl]-2-methyl-3-oxohexahydro-1H-pyrrolo[1,2-c]imidazol-5-yl}-4-(trifluoromethyl)phenyl]-6-methoxypyridin-3-yl}-3-methylbenzoic acid]", "IC50": 1500},
      {"smiles": "COc1ccc(-c2cccnc2C)cc1-c1ccc(C(F)(F)F)cc1[C@@H]1CC[C@H]2[C@@H](c3cc(C(F)(F)F)cc(C(F)(F)F)c3)NC(=O)N12", "note": "[Example 13, (1R,5S,7aS)-1-[3,5-bis(trifluoromethyl)phenyl]-5-[2′-methoxy-5′-(2-methylpyridin-3-yl)-4-(trifluoromethyl)biphenyl-2-yl]hexahydro-3H-pyrrolo[1,2-c]imidazol-3-one]", "IC50": 795},
      {"smiles": "COc1ccc(-c2ccc(C(=O)O)cc2C)cc1-c1ccc(C(F)(F)F)cc1[C@@H]1CC[C@H]2[C@@H](c3cc(C(F)(F)F)cc(C(F)(F)F)c3)N(C)C(=O)N12", "note": "[Example 12, 2″-{(1R,5S,7aS)-1-[3,5-bis(trifluoromethyl)phenyl]-2-methyl-3-oxohexahydro-1H-pyrrolo[1,2-c]imidazol-5-yl}-4′-methoxy-2-methyl-4″-(trifluoromethyl)-l,1′:3′,l″-terphenyl-4-carboxylic acid]", "IC50": 1420},
      {"smiles": "COc1ccc(CCC(=O)O)cc1-c1ccc(C(F)(F)F)cc1[C@@H]1CC[C@H]2[C@@H](c3cc(F)cc(C(F)(F)F)c3)NC(=O)N12", "note": "[Example 17, 3-[2′-{(1R,5S,7aS)-1-[3-fluoro-5-(trifluoromethyl)phenyl]-3-oxohexahydro-1H-pyrrolo[1,2-c]imidazol-5-yl}-6-methoxy-4′-(trifluoromethyl)biphenyl-3-yl]propanoic acid]", "IC50": 3160},
      {"smiles": "COc1ccc(-c2ccc(C(=O)O)cc2C)cc1-c1ccc(C(F)(F)F)cc1[C@@H]1CC[C@H]2[C@@H](c3ccnc(C(F)(F)F)c3)NC(=O)N12", "note": "[Example 19, 4′-methoxy-2-methyl-2″-{(1R,5S,7aS)-3-oxo-1-[2-(trifluoromethyl)pyridin-4-yl]hexahydro-1H-pyrrolo[1,2-c]imidazol-5-yl}-4″-(trifluoromethyl)-1,1′:3′,1″-terphenyl-4-carboxylic acid]", "IC50": 4870},
      {"smiles": "COc1ccc(-c2ccc(C(=O)O)cc2C)cc1-c1ccc(C(F)(F)F)cc1[C@@H]1CC[C@H]2[C@@H](c3cc(F)cc(C(F)(F)F)c3)NC(=O)N12", "note": "[Example 16, 2″-{(1R,5S,7aS)-1-[3-fluoro-5-(trifluoromethyl)phenyl]-3-oxohexahydro-1H-pyrrolo[1,2-c]imidazol-5-yl}-4′-methoxy-2-methyl-4″-(trifluoromethyl)-1,1′:3′,1″-terphenyl-4-carboxylic acid]", "IC50": 1510},
      {"smiles": "COc1ncc(-c2ccc(C(=O)O)cc2C)cc1-c1ccc(C(F)(F)F)cc1[C@@H]1CC[C@H]2[C@@H](c3ccnc(C(F)(F)F)c3)NC(=O)N12", "note": "[Example 18, 4-{6-methoxy-5-[2-{(1R,5S,7aS)-3-oxo-1-[2-(trifluoromethyl)pyridin-4-yl]hexahydro-1H-pyrrolo[1,2-c]imidazol-5-yl}-4-(trifluoromethyl)phenyl]pyridin-3-yl}-3-methylbenzoic acid]", "IC50": 5040},
      {"smiles": "COc1ccc(-c2ccc(C(=O)O)nc2C)cc1-c1ccc(C(F)(F)F)cc1[C@@H]1CC[C@H]2[C@@H](c3cc(C(F)(F)F)cc(C(F)(F)F)c3)NC(=O)N12", "note": "[Example 14, 5-[2′-{(1R,5S,7aS)-1-[3,5-bis(trifluoromethyl)phenyl]-3-oxohexahydro-1H-pyrrolo[1,2-c]imidazol-5-yl}-methoxy-4′-(trifluoromethyl)biphenyl-3-yl]-6-methylpyridine-2-carboxylic acid]", "IC50": 1930},
      {"smiles": "COc1ccc(CCC(=O)O)cc1-c1ccc(C(F)(F)F)cc1[C@@H]1CC[C@H]2[C@@H](c3cc(F)cc(C(F)(F)F)c3)NS(=O)(=O)N12", "note": "[Example 25, 3-[2′-{(3R,3aS,6S)-3-[3-fluoro-5-(trifluoromethyl)phenyl]-1,1-dioxidohexahydropyrrolo[1,2-b][1,2,5]thiadiazol-6-yl}-6-methoxy-4′-(trifluoromethyl)biphenyl-3-yl]propanoic acid]", "IC50": 3120},
      {"smiles": "COc1ccc(-c2ccc(C(=O)O)cc2C)cc1-c1cnc(C(F)(F)F)cc1[C@@H]1CC[C@H]2[C@@H](c3cc(C(F)(F)F)cc(C(F)(F)F)c3)NC(=O)N12", "note": "[Example 20, 3′-[4-{(1R,5S,7aS)-1-[3,5-bis(trifluoromethyl)phenyl]-3-oxohexahydro-1H-pyrrolo[1,2-c]imidazol-5-yl}-6-(trifluoromethyl)pyridin-3-yl]-4′-methoxy-2-methylbiphenyl-4-carboxylic acid]", "IC50": 1570}
    ]}
  ]
}
